Measured values reported in patent US12252524B2, “GIP/GLP1 co-agonist compounds” (Eli Lilly and Company, priority 2018, dated 2025).
Numbered stars: 1 amine (or outer) side, 2 acyl side, 3 side chain; on linkers, the order of the positions; unused ones are H or OH. Square brackets hold non-standard residues; d marks the D form. Side chains are listed from the residue outwards. Peptide text beside a SMILES is read from it. * marks the point of attachment. C20 diacid = O=C(O)CCCCCCCCCCCCCCCCCCC(=O)*; C18 diacid = O=C(O)CCCCCCCCCCCCCCCCC(=O)*; αMePhe(2-F) = C[C@](N)(Cc1ccccc1F)C(=O)O; γGlu = O=C(O)[C@H](CCC(=O)[*:2])N[*:1]; Desaminohistidyl = O=C(CCc1c[nH]cn1)*; Desaminotyrosyl = O=C(CCc1ccc(O)cc1)*; αMeY = C[C@](N)(Cc1ccc(O)cc1)C(=O)O; αMeL = CC(C)C[C@](C)(N)C(=O)O; αMeP = C[C@@]1(C(=O)O)CCCN1; Orn = NCCC[C@H](N)C(=O)O; AEEA = NCCOCCOCC(=O)O; Aib = CC(C)(N)C(=O)O

Legend:
[1] = target: human GLP-1 receptor (GLP-1R) (Homo sapiens, UniProt P43220); test: cAMP pharmacological functional assay in presence of casein, hGLP-1R; type: cell-based; conditions: HEK293 cells expressing hGLP-1R, 0.1% Casein, geometric mean; read-out: hGLP1R cAMP Rel EC50 nM (SEM, n)
Sequence of human GLP-1 receptor (GLP-1R) (P43220 24-463): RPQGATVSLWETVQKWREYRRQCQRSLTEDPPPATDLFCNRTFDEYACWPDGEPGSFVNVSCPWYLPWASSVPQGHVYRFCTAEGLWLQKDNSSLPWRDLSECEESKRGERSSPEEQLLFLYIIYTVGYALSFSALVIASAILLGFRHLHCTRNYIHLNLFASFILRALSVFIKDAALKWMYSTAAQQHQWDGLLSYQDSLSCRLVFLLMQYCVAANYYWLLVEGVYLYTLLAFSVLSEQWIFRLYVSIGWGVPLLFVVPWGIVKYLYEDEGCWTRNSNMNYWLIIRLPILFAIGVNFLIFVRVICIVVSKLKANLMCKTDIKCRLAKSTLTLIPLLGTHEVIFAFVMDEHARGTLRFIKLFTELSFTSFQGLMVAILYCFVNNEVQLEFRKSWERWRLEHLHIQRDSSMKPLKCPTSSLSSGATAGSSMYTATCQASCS

[2] = target: T1, gastric inhibitory peptide receptor (GIPR) (Homo sapiens, UniProt P48546); test: cAMP pharmacological functional assay in presence of casein, hGIPR; type: cell-based; conditions: HEK293 cells expressing hGIPR, 0.1% Casein, geometric mean; read-out: hGIPR cAMP Rel EC50 nM (SEM, n)
T1 sequence (P48546 22-466): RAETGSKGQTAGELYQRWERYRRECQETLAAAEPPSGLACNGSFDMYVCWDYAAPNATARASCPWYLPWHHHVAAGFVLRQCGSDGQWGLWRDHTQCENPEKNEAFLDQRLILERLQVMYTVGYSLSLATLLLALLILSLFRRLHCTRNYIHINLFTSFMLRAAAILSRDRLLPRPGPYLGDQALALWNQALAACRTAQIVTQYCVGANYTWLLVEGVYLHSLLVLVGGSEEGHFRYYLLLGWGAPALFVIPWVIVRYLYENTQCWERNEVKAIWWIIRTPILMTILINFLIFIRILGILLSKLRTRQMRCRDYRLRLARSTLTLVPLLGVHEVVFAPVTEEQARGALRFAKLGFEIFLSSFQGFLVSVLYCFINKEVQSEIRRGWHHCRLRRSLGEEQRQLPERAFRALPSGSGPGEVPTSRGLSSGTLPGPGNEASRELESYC

CC[C@H](C)[C@H](NC(=O)[C@H](CC(C)C)NC(=O)[C@H](Cc1ccc(O)cc1)NC(=O)[C@H](CCC(=O)O)NC(=O)[C@@H](NC(=O)[C@H](Cc1ccccc1)NC(=O)[C@H](C)NC(=O)[C@H](CCC(N)=O)NC(=O)[C@H](CCC(N)=O)NC(=O)[C@H](C)NC(=O)[C@H](CCCCNC(=O)COCCOCCNC(=O)COCCOCCNC(=O)CC[C@H](NC(=O)CCCCCCCCCCCCCCCCCCC(=O)O)C(=O)O)NC(=O)[C@H](CCC(=O)O)NC(=O)[C@H](CC(=O)O)NC(=O)[C@H](CC(C)C)NC(=O)[C@H](CC(C)C)NC(=O)[C@@H](NC(=O)[C@H](CO)NC(=O)[C@H](Cc1ccc(O)cc1)NC(=O)[C@H](CC(=O)O)NC(=O)[C@H](CO)NC(=O)[C@@H](NC(=O)[C@H](Cc1ccccc1)NC(=O)[C@@H](NC(=O)CNC(=O)[C@H](CCC(=O)O)NC(=O)C(C)(C)NC(=O)CCc1ccc(O)cc1)[C@@H](C)O)[C@@H](C)O)[C@@H](C)CC)[C@@H](C)CC)C(=O)N[C@@H](CCC(=O)O)C(=O)NCC(=O)NCC(=O)N1CCC[C@H]1C(=O)N[C@@H](CO)C(=O)N[C@@H](CO)C(=O)NCC(=O)N[C@@H](C)C(=O)N1CCC[C@H]1C(=O)N1CCC[C@H]1C(=O)N1CCC[C@H]1C(=O)N[C@@H](CO)C(N)=O [Example 199] (Desaminotyrosyl-[Aib]EGTFTSDYSILLDEK([AEEA-AEEA-γGlu-C20 diacid])AQQAFIEYLIEGGPSSGAPPPS-NH2)
EC50 [1]: 0.0422 nM | EC50 [2]: > 30 nM

CC[C@H](C)[C@H](NC(=O)[C@H](CC(C)C)NC(=O)[C@H](Cc1ccc(O)cc1)NC(=O)[C@H](CCC(=O)O)NC(=O)[C@@H](NC(=O)[C@H](Cc1ccccc1)NC(=O)[C@H](C)NC(=O)[C@H](CCC(N)=O)NC(=O)[C@H](CCC(N)=O)NC(=O)[C@H](C)NC(=O)[C@H](CCCCNC(=O)COCCOCCNC(=O)COCCOCCNC(=O)CC[C@H](NC(=O)CCCCCCCCCCCCCCCCCCC(=O)O)C(=O)O)NC(=O)[C@H](CCC(=O)O)NC(=O)[C@H](CC(=O)O)NC(=O)[C@H](CC(C)C)NC(=O)[C@H](CC(C)C)NC(=O)[C@@H](NC(=O)[C@H](CO)NC(=O)[C@H](Cc1ccc(O)cc1)NC(=O)[C@H](CC(=O)O)NC(=O)[C@H](CO)NC(=O)[C@@H](NC(=O)[C@H](Cc1ccccc1)NC(=O)[C@@H](NC(=O)CNC(=O)[C@H](CCC(=O)O)NC(=O)[C@]1(C)CCCN1C(=O)CCc1c[nH]cn1)[C@@H](C)O)[C@@H](C)O)[C@@H](C)CC)[C@@H](C)CC)C(=O)N[C@@H](CCC(=O)O)C(=O)NCC(=O)NCC(=O)N1CCC[C@H]1C(=O)N[C@@H](CO)C(=O)N[C@@H](CO)C(=O)NCC(=O)N[C@@H](C)C(=O)N1CCC[C@H]1C(=O)N1CCC[C@H]1C(=O)N1CCC[C@H]1C(=O)N[C@@H](CO)C(N)=O [Example 201] (Desaminohistidyl-[αMeP]EGTFTSDYSILLDEK([AEEA-AEEA-γGlu-C20 diacid])AQQAFIEYLIEGGPSSGAPPPS-NH2)
EC50 [1]: 0.0385 nM | EC50 [2]: > 30 nM

CC[C@H](C)[C@H](NC(=O)[C@H](CC(C)C)NC(=O)[C@](C)(Cc1ccc(O)cc1)NC(=O)[C@@H](CCC(=O)O)NC(=O)[C@@H](NC(=O)[C@H](Cc1ccccc1)NC(=O)[C@@H](NC(=O)C(C)(C)NC(=O)[C@H](CCC(N)=O)NC(=O)[C@H](C)NC(=O)[C@H](CCCCNC(=O)COCCOCCNC(=O)COCCOCCNC(=O)CC[C@H](NC(=O)CCCCCCCCCCCCCCCCC(=O)O)C(=O)O)NC(=O)[C@H](CCCN)NC(=O)[C@H](CC(=O)O)NC(=O)[C@H](CC(C)C)NC(=O)[C@](C)(CC(C)C)NC(=O)[C@@H](NC(=O)[C@H](CO)NC(=O)[C@H](C)NC(=O)[C@H](CC(=O)O)NC(=O)[C@H](CO)NC(=O)[C@@H](NC(=O)[C@](C)(Cc1ccccc1F)NC(=O)[C@@H](NC(=O)CNC(=O)[C@H](CCC(=O)O)NC(=O)C(C)(C)NC(=O)[C@@H](N)Cc1ccc(O)cc1)[C@@H](C)O)[C@@H](C)O)[C@@H](C)CC)[C@@H](C)O)[C@@H](C)CC)C(=O)N[C@@H](CCC(=O)O)C(=O)NCC(=O)NCC(=O)N1CCC[C@H]1C(=O)N[C@@H](CO)C(=O)N[C@@H](CO)C(=O)NCC(=O)N[C@@H](C)C(=O)N1CCC[C@H]1C(=O)N1CCC[C@H]1C(=O)N1CCC[C@H]1C(=O)N[C@@H](CO)C(N)=O [Example 245] (H-Y[Aib]EGT[αMePhe(2-F)]TSDASI[αMeL]LD[Orn]K([AEEA-AEEA-γGlu-C18 diacid])AQ[Aib]TFI[dE][αMeY]LIEGGPSSGAPPPS-NH2)
EC50 [1]: 0.0222 nM | EC50 [2]: 0.0552 nM

CC[C@H](C)[C@H](NC(=O)[C@H](CC(C)C)NC(=O)[C@H](Cc1ccc(O)cc1)NC(=O)[C@H](CCC(=O)O)NC(=O)[C@@H](NC(=O)[C@H](Cc1ccccc1)NC(=O)[C@H](C)NC(=O)[C@H](CCCCN)NC(=O)[C@H](CCC(N)=O)NC(=O)[C@H](C)NC(=O)[C@H](CCCCNC(=O)COCCOCCNC(=O)COCCOCCNC(=O)CC[C@H](NC(=O)CCCCCCCCCCCCCCCCCCC(=O)O)C(=O)O)NC(=O)[C@H](CCCCN)NC(=O)[C@H](CC(=O)O)NC(=O)[C@H](CC(C)C)NC(=O)[C@H](CC(C)C)NC(=O)[C@@H](NC(=O)[C@H](CO)NC(=O)[C@H](Cc1ccc(O)cc1)NC(=O)[C@H](CC(=O)O)NC(=O)[C@H](CO)NC(=O)[C@@H](NC(=O)[C@H](Cc1ccccc1)NC(=O)[C@@H](NC(=O)CNC(=O)[C@H](CCC(=O)O)NC(=O)C(C)(C)NC(=O)[C@@H](N)Cc1ccc(O)cc1)[C@@H](C)O)[C@@H](C)O)[C@@H](C)CC)[C@@H](C)CC)C(=O)N[C@@H](CCC(=O)O)C(=O)NCC(=O)NCC(=O)N1CCC[C@H]1C(=O)N[C@@H](CO)C(=O)N[C@@H](CO)C(=O)NCC(=O)N[C@@H](C)C(=O)N1CCC[C@H]1C(=O)N1CCC[C@H]1C(=O)N1CCC[C@H]1C(=O)N[C@@H](CO)C(N)=O [Example 256]
EC50 [1]: 0.0506 nM | EC50 [2]: 0.643 nM

CC[C@H](C)[C@H](NC(=O)[C@H](CC(C)C)NC(=O)[C@H](Cc1ccc(O)cc1)NC(=O)[C@H](CCC(=O)O)NC(=O)[C@@H](NC(=O)[C@H](Cc1ccccc1)NC(=O)[C@H](C)NC(=O)[C@H](CCCNC(=N)N)NC(=O)[C@H](CCC(N)=O)NC(=O)[C@H](C)NC(=O)[C@H](CCCCNC(=O)COCCOCCNC(=O)COCCOCCNC(=O)CC[C@H](NC(=O)CCCCCCCCCCCCCCCCCCC(=O)O)C(=O)O)NC(=O)[C@H](CCCCN)NC(=O)[C@H](CC(=O)O)NC(=O)[C@H](CC(C)C)NC(=O)[C@H](CC(C)C)NC(=O)[C@@H](NC(=O)[C@H](CO)NC(=O)[C@H](Cc1ccc(O)cc1)NC(=O)[C@H](CC(=O)O)NC(=O)[C@H](CO)NC(=O)[C@@H](NC(=O)[C@H](Cc1ccccc1)NC(=O)[C@@H](NC(=O)CNC(=O)[C@H](CCC(=O)O)NC(=O)C(C)(C)NC(=O)[C@@H](N)Cc1ccc(O)cc1)[C@@H](C)O)[C@@H](C)O)[C@@H](C)CC)[C@@H](C)CC)C(=O)N[C@@H](CCC(=O)O)C(=O)NCC(=O)NCC(=O)N1CCC[C@H]1C(=O)N[C@@H](CO)C(=O)N[C@@H](CO)C(=O)NCC(=O)N[C@@H](C)C(=O)N1CCC[C@H]1C(=O)N1CCC[C@H]1C(=O)N1CCC[C@H]1C(=O)N[C@@H](CO)C(N)=O [Example 257] (H-Y[Aib]EGTFTSDYSILLDKK([AEEA-AEEA-γGlu-C20 diacid])AQRAFIEYLIEGGPSSGAPPPS-NH2; N-terminus assumed)
EC50 [1]: 0.0779 nM | EC50 [2]: 0.474 nM

CC[C@H](C)[C@H](NC(=O)[C@H](CC(C)C)NC(=O)[C@H](Cc1ccc(O)cc1)NC(=O)[C@H](CCC(=O)O)NC(=O)[C@@H](NC(=O)[C@H](Cc1ccccc1)NC(=O)[C@H](C)NC(=O)[C@H](CCCCN)NC(=O)[C@H](CCC(N)=O)NC(=O)[C@H](C)NC(=O)[C@H](CCCCNC(=O)COCCOCCNC(=O)COCCOCCNC(=O)CC[C@H](NC(=O)CCCCCCCCCCCCCCCCCCC(=O)O)C(=O)O)NC(=O)[C@H](CCC(=O)O)NC(=O)[C@H](CC(=O)O)NC(=O)[C@H](CC(C)C)NC(=O)[C@H](CC(C)C)NC(=O)[C@@H](NC(=O)[C@H](CO)NC(=O)[C@H](Cc1ccc(O)cc1)NC(=O)[C@H](CC(=O)O)NC(=O)[C@H](CO)NC(=O)[C@@H](NC(=O)[C@H](Cc1ccccc1)NC(=O)[C@@H](NC(=O)CNC(=O)[C@H](CCC(=O)O)NC(=O)C(C)(C)NC(=O)[C@@H](N)Cc1ccc(O)cc1)[C@@H](C)O)[C@@H](C)O)[C@@H](C)CC)[C@@H](C)CC)C(=O)N[C@@H](CCC(=O)O)C(=O)NCC(=O)NCC(=O)N1CCC[C@H]1C(=O)N[C@@H](CO)C(=O)N[C@@H](CO)C(=O)NCC(=O)N[C@@H](C)C(=O)N1CCC[C@H]1C(=O)N1CCC[C@H]1C(=O)N1CCC[C@H]1C(=O)N[C@@H](CO)C(N)=O [Example 258] (H-Y[Aib]EGTFTSDYSILLDEK([AEEA-AEEA-γGlu-C20 diacid])AQKAFIEYLIEGGPSSGAPPPS-NH2; N-terminus assumed)
EC50 [1]: 0.174 nM | EC50 [2]: 2.43 nM
